Data as given in patent publication US11439622B2 (OXFORD UNIVERSITY INNOVATION LIMITED, priority 2015, dated 2022).

Columns and labels:
IMP-1 (Imipenemase-1) = IMP-1 (Imipenemase-1) (Serratia marcescens, UniProt P52699); experiment: Enzyme inhibition assay, IMP-1; format: biochemical; conditions: read-out: pIC50 IMP-1 (converted)
Method: (§1) The biological activity of the compounds of the present invention was tested using standard assay protocols.^7 The following representative enzymes NDM-1 (New Delhi metallo-β-lactamase-1), IMP-1 (Imipenemase-1) and VIM-2 (Veronese metallo-β-lactamase-2) were selected from different clinically relevant B1 metallo-β-lactamases.

[1] = biological target: NDM-1 (New Delhi metallo-β-lactamase-1) (Klebsiella pneumoniae, UniProt C7C422); experiment: Enzyme inhibition assay, NDM-1; format: biochemical; conditions: for IC50: read-out: pIC50 NDM-1 (converted)
Sequence of NDM-1 (New Delhi metallo-β-lactamase-1) (C7C422 29-270, looked up, species assumed): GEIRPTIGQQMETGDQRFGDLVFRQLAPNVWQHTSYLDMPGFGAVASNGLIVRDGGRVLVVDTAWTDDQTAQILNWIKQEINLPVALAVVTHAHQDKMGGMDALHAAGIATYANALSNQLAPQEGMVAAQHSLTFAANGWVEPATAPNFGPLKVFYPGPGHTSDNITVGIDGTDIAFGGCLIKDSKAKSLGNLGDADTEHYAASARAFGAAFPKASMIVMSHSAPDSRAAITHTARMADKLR
Method: as §1

Sequence of IMP-1 (Imipenemase-1) (P52699 19-246, looked up, species assumed): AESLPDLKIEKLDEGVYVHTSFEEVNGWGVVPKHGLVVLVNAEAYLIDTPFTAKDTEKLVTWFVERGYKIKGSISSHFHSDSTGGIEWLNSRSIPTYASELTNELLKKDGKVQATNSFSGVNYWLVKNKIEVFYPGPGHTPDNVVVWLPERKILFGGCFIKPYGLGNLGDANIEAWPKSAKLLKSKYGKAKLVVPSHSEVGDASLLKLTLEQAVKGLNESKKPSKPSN

Row | Compound | IC50 (IMP-1 (Imipenemase-1)) [µM] | IC50 [1] [µM] | pIC50 NDM-1 [1]
1 | CC(C)c1cccc2c(-c3ccc(C(=O)N(C)C)cc3Cl)c(C(=O)O)[nH]c12 [Example 101, 3-(2-chloro-4-(dimethylcarbamoyl)phenyl)-7-isopropyl-1H-indole-2-carboxylic acid] | 1.55 | 0.0158 | –
2 | Cc1ccc(-c2c(C(=O)O)[nH]c3c(C(C)C)cccc23)s1 [Example 89, 7-isopropyl-3-(5-methylthiophen-2-yl)-1H-indole-2-carboxylic acid] | 0.0214 | 0.0269 | –
3 | CN(C)S(=O)(=O)c1ccc(-c2c(C(=O)O)[nH]c3c(C(C)(C)C)cccc23)cc1 [Example 93, 7-(tert-butyl)-3-(4-(N,N-dimethylsulfamoyl)phenyl)-1H-indole-2-carboxylic acid] | 0.0851 | 0.0794 | –
4 | Cc1cccc2cc(C(=O)O)[nH]c12 [Example 114, 7-methyl-1H-indole-2-carboxylic acid] | – | 3.16 | –
5 | CC(C)c1cccc2c(-c3ccc(S(=O)(=O)N4CCOCC4)cc3)c(C(=O)O)[nH]c12 [Example 95, 7-isopropyl-3-(4-(morpholinosulfonyl)phenyl)-1H-indole-2-carboxylicacid] | 0.024 | 0.00269 | –
6 | O=C(O)c1[nH]c2ccccc2c1-c1ccccc1 [Example 109, 3-phenyl-1H-indole-2-carboxylic acid] | – | 3.16 | –
7 | CC(C)c1cccc2c(-c3ccc(S(=O)(=O)N(C)C)cc3)c(C#N)[nH]c12 [Example 126, 4-(2-cyano-7-isopropyl-1H-indol-3-yl)-N,N-dimethylbenzenesulfonamide] | – | – | N.I.
8 | CC(C)c1cccc2c(-c3ccc(S(=O)(=O)N4CCCC4)cc3)c(C(=O)O)[nH]c12 [Example 99, 7-isopropyl-3-(4-(pyrrolidin-1-ylsulfonyl)phenyl)-1H-indole-2-carboxylic acid] | 0.00832 | 0.000851 | –
9 | Cc1cccc2c(Br)c(C(=O)O)[nH]c12 [Example 115, 3-bromo-7-methyl-1H-indole-2-carboxylic acid] | – | 1.58 | –
10 | CC(=O)NCc1ccc(-c2c(C(=O)O)[nH]c3c(C(C)C)cccc23)cc1 [Example 90, 3-(4-(acetamidomethyl)phenyl)-7-isopropyl-1H-indole-2-carboxylic acid] | 0.0617 | 0.0126 | –
11 | Cc1cccc2c(I)c(C(=O)O)[nH]c12 [Example 46, 3-iodo-7-methyl-1H-indole-2-carboxylic acid] | – | 0.631 | –
12 | CC(C)c1cccc2c(-c3ccc(CN(C)C)cc3)c(C(=O)O)[nH]c12 [Example 97, 3-(4-((dimethylamino)methyl)phenyl)-7-isopropyl-1H-indole-2-carboxylicacid] | 0.437 | 0.01 | –
13 | Cc1cccc2c(C3=CCCC3)c(C(=O)O)[nH]c12 [Example 27, 3-(cyclopent-1-en-1-yl)-7-methyl-1H-indole-2-carboxylic acid] | – | 0.0794 | –
14 | CC(C)c1cccc2c(-c3ccc(S(=O)(=O)N(C)C)cc3)c(C(=O)Nc3ncco3)[nH]c12 [Example 128, 3-(4-(N,N-dimethylsulfamoyl)phenyl)-7-isopropyl-N-(oxazol-2-yl)-1H-indole-2-carboxamide] | – | 0.214 | –
15 | CC(C)c1cccc2c(-c3ccc(S(=O)(=O)N(C)C)cc3)c(C(N)=O)[nH]c12 [Example 125, 3-(4-(N,N-dimethylsulfamoyl)phenyl)-7-isopropyl-1H-indole-2-carboxamide] | – | – | N.I.
16 | CS(=O)(=O)c1ccc(NNC(=O)c2[nH]c3ccccc3c2-c2ccccc2)cc1 [Example 113, N′-(4-(methylsulfonyl)phenyl)-3-phenyl-1H-indole-2-carbohydrazide] | – | 7.94 | –
17 | Cc1cccc2c(-c3ccc(F)cc3)c(C(=O)NNc3ccc(S(C)(=O)=O)cc3)[nH]c12 [Example 110, 3-(4-fluorophenyl)-7-methyl-N′-(4-(methylsulfonyl)phenyl)-1H-indole-2-carbohydrazide] | – | 2 | –
18 | Cc1cccc2c(-c3ccc(Cl)cc3)c(C(=O)O)n(C)c12 [Example 35, 3-(4-chlorophenyl)-1,7-dimethyl-indole-2-carboxylic acid] | – | 0.501 | –
